Measurements taken from patent publication US4162938A, “Antibiotic compound” (Bristol-Myers Company, priority 1978, dated 1979).
Where two headings read alike, the source gives them in different places.

What was measured:
[1] = test system: Candida albicans A-9540; assay: MIC, standard tube dilution procedure; format: cell-based
Description: (§1) The in vitro minimum inhibitory concentrations (MIC) of rudolphomycin were determined for a number of microorganisms using the standard tube dilution procedure.

[2] = test system: Candida krusei A-15052; assay: MIC, standard tube dilution procedure; format: cell-based
Description: as §1

[3] = test system: Candida tropicalis A-15051; assay: MIC, standard tube dilution procedure; format: cell-based
Description: as §1

[4] = test system: Cryptococcus neoformans A-15053; assay: MIC, standard tube dilution procedure; format: cell-based
Description: as §1

[5] = test system: Enterobacter cloacae A-9659; assay: MIC, standard tube dilution procedure; format: cell-based
Description: as §1

[6] = test system: Escherichia coli A-15119; assay: MIC, standard tube dilution procedure; format: cell-based
Description: as §1

[7] = test system: Escherichia coli A-20341-1; assay: MIC, standard tube dilution procedure; format: cell-based
Description: as §1

[8] = test system: Klebsiella pneumoniae A-15130; assay: MIC, standard tube dilution procedure; format: cell-based
Description: as §1

[9] = test system: Microsporum canis A-9872; assay: MIC, standard tube dilution procedure; format: cell-based
Description: as §1

[10] = test system: Proteus mirabilis A-9900; assay: MIC, standard tube dilution procedure; format: cell-based
Description: as §1

[11] = test system: Proteus vulgaris A-9716; assay: MIC, standard tube dilution procedure; format: cell-based
Description: as §1

[12] = test system: Pseudomonas aeruginosa A-9843A; assay: MIC, standard tube dilution procedure; format: cell-based
Description: as §1

[13] = test system: Serratia marcescens A-20019; assay: MIC, standard tube dilution procedure; format: cell-based
Description: as §1

[14] = test system: Staphylococcus aureus A-9537; assay: MIC, standard tube dilution procedure; format: cell-based
Description: as §1

[15] = test system: Staphylococcus aureus A-9606; assay: MIC, standard tube dilution procedure; format: cell-based
Description: as §1

[16] = test system: Streptococcus faecalis A-20688; assay: MIC, standard tube dilution procedure; format: cell-based
Description: as §1

[17] = test system: Streptococcus pneumoniae A-9585; assay: MIC, standard tube dilution procedure; format: cell-based
Description: as §1

[18] = test system: Streptococcus pyogenes A-9604; assay: MIC, standard tube dilution procedure; format: cell-based
Description: as §1

[19] = test system: Trichophyton mentagrophytes A-9870; assay: MIC, standard tube dilution procedure; format: cell-based
Description: as §1

[20] = test system: L-1210 leukemia; format: in vivo, mouse (BDF1 female)
Description: The compound of the present invention was also tested against the transplantable mouse tumor L-1210 lymphatic leukemia which is responsive to anthracycline-type antitumor agents.
Tumor inoculum: 10^6 ascites cells implanted i.p.
Host: BDF1 .female. mice
Evaluation: MST = median survival time
Effect: % T/C = MST treated/MST control × 100
Criteria: T/C ≥ 125 considered significant antitumor effect.

[21] = test system: L1210 mouse leukemia; assay: Activity of chromatographic bands on L1210 mouse leukemia system; format: in vivo; settings: Example 4 bands
[22] = test system: P388 mouse leukemia; assay: Activity of chromatographic bands on P388 mouse leukemia system; format: in vivo; settings: Example 4 bands
[23] = Biological activity of chromatographic fractions of bohemic acid complex (test not specified); settings: Example 5, large scale LH-20
[24] = day 1 (1 inj.), 0.4 mg./kg./inj.
[25] = day 1 (1 inj.), 0.8 mg./kg./inj.
[26] = day 1 (1 inj.), 1.6 mg./kg./inj.
[27] = day 1 (1 inj.), 3.2 mg./kg./inj.
[28] = day 1 (1 inj.), 6.4 mg./kg./inj.
[29] = day 1 (1 inj.), 12.8 mg./kg./inj.
[30] = days 1, 4, 7 (3 inj.), 0.2 mg./kg./inj.
[31] = days 1, 4, 7 (3 inj.), 0.4 mg./kg./inj.
[32] = days 1, 4, 7 (3 inj.), 0.8 mg./kg./inj.
[33] = days 1, 4, 7 (3 inj.), 1.6 mg./kg./inj.
[34] = days 1, 4, 7 (3 inj.), 3.2 mg./kg./inj.
[35] = days 1, 4, 7 (3 inj.), 6.4 mg./kg./inj.
[36] = days 1→5 (5 inj.), 0.1 mg./kg./inj.
[37] = days 1→5 (5 inj.), 0.2 mg./kg./inj.
[38] = days 1→5 (5 inj.), 0.4 mg./kg./inj.
[39] = days 1→5 (5 inj.), 0.8 mg./kg./inj.
[40] = days 1→5 (5 inj.), 1.6 mg./kg./inj.
[41] = days 1→5 (5 inj.), 3.2 mg./kg./inj.
[42] = days 1→9 (9 inj.), 0.05 mg./kg./inj.
[43] = days 1→9 (9 inj.), 0.1 mg./kg./inj.
[44] = days 1→9 (9 inj.), 0.2 mg./kg./inj.
[45] = days 1→9 (9 inj.), 0.4 mg./kg./inj.
[46] = days 1→9 (9 inj.), 0.8 mg./kg./inj.
[47] = days 1→9 (9 inj.), 1.6 mg./kg./inj.

CC[C@@]1(O)C[C@H](O[C@H]2C[C@H](N(C)C)[C@H](O[C@H]3C[C@H](O)[C@H](O[C@@H]4O[C@@H](C)C(=O)C=C4N)[C@@H](C)O3)[C@@H](C)O2)c2c(cc3c(c2O)C(=O)c2c(O)ccc(O)c2C3=O)[C@H]1C(=O)OC [Rudolphomycin]
2 µg/mL: MIC [14]
114%: MST % T/C [20, 24] | MST % T/C [20, 25] | MST % T/C [20, 26] | MST % T/C [20, 30] | MST % T/C [20, 31] | MST % T/C [20, 36] | MST % T/C [20, 42]
107%: MST % T/C [20, 43] | MST % T/C [20, 47]
8 µg/mL: MIC [15]
143%: MST % T/C [20, 27] | MST % T/C [20, 28] | MST % T/C [20, 29] | MST % T/C [20, 33] | MST % T/C [20, 39]
136%: MST % T/C [20, 32]
129%: MST % T/C [20, 35] | MST % T/C [20, 37] | MST % T/C [20, 38] | MST % T/C [20, 40] | MST % T/C [20, 41] | MST % T/C [20, 44] | MST % T/C [20, 45] | MST % T/C [20, 46]
> 63 µg/mL: MIC [5] | MIC [6] | MIC [7] | MIC [8] | MIC [10] | MIC [11] | MIC [12] | MIC [13]
100%: MST % T/C [20, 34]
0.5 µg/mL: MIC [18]
4 µg/mL: MIC [16]
8.0 days: MST (median survival time) [20, 24] | MST (median survival time) [20, 25] | MST (median survival time) [20, 26] | MST (median survival time) [20, 30] | MST (median survival time) [20, 31] | MST (median survival time) [20, 36] | MST (median survival time) [20, 42]
10.0 days: MST (median survival time) [20, 27] | MST (median survival time) [20, 28] | MST (median survival time) [20, 29] | MST (median survival time) [20, 33] | MST (median survival time) [20, 39]
> 125 µg/mL: MIC [1] | MIC [2] | MIC [3] | MIC [9] | MIC [19]
0.25 µg/mL: MIC [17]
7.0 days: MST (median survival time) [20, 34]
9.0 days: MST (median survival time) [20, 35] | MST (median survival time) [20, 37] | MST (median survival time) [20, 38] | MST (median survival time) [20, 40] | MST (median survival time) [20, 41] | MST (median survival time) [20, 44] | MST (median survival time) [20, 45] | MST (median survival time) [20, 46]
9.5 days: MST (median survival time) [20, 32]
63 µg/mL: MIC [4]
7.5 days: MST (median survival time) [20, 43] | MST (median survival time) [20, 47]

CC[C@@]1(O)C[C@H](O[C@H]2C[C@H](N(C)C)[C@H](O[C@H]3C[C@H](O)[C@H](O)[C@H](C)O3)[C@H](C)O2)c2c(cc3c(c2O)C(=O)c2c(O)ccc(O)c2C3=O)[C@H]1C(=O)OC [musettamycin]
highly active: activity on L1210 mouse leukemia [21] | activity on P388 mouse leukemia [22]
active: activity of chromatographic fraction [23]
